{
  "source": "paper PMC6934184",
  "about": "“Selective DNA-PKcs inhibition extends the therapeutic index of localized radiotherapy and chemotherapy” (The Journal of Clinical Investigation, 2019)",
  "biological_target": "T1, KDR (VEGFR2) (Homo sapiens, UniProt P35968)",
  "T1 construct": "purchased Thermo Fisher Scientific (Life Technologies) SelectScreen",
  "T1 sequence (P35968 20-1356)": "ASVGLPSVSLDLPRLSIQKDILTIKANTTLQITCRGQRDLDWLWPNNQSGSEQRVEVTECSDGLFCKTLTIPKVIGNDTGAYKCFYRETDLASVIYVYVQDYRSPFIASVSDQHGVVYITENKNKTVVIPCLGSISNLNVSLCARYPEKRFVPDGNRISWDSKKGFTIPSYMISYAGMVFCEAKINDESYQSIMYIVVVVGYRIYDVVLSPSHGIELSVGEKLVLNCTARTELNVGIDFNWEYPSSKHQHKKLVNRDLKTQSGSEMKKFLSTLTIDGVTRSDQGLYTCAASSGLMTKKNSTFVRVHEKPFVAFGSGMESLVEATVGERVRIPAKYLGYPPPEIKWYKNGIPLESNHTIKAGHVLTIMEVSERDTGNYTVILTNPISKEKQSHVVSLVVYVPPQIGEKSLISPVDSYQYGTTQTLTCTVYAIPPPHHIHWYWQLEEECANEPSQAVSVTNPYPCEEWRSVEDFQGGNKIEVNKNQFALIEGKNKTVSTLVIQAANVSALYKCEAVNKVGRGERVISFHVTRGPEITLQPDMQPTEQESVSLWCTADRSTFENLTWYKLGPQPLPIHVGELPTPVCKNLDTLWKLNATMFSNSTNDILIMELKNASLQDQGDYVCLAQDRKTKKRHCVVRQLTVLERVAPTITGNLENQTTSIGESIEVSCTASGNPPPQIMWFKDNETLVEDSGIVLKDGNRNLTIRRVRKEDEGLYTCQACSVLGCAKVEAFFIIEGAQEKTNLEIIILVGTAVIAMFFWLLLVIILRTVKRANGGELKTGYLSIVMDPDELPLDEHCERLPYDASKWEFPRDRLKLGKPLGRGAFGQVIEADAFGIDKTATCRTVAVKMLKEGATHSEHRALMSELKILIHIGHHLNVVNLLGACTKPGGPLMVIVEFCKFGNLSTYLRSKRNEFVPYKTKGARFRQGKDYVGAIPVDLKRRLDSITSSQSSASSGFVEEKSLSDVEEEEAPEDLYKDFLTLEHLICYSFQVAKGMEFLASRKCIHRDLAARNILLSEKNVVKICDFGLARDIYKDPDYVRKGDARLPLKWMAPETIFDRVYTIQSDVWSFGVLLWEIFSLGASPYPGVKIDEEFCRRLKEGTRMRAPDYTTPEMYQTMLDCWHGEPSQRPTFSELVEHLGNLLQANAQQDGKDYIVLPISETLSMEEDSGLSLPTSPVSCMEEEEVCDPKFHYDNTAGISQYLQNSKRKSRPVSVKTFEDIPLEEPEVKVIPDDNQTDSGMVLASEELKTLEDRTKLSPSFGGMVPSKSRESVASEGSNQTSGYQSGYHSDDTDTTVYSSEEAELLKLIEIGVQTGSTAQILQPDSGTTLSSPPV",
  "test": "SelectScreen Z'LYTE",
  "assay_type": "biochemical",
  "how_it_was_run": "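SelectScreen broad panel; activity (Z'LYTE, Adapta) plus binding formats. ATP: Km app for CSF1R Z'LYTE; 10 for CAMK1 Adapta. Readout = % per kinase.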",
  "data": [
    {"compound": "CN(C(=O)CN1CCOCC1)c1ccc2sc3c(-c4cccc5c(=O)cc(N6CC7CCC(C6)O7)oc45)cccc3c2c1", "note": "[NU5455]", "values": [
      {"measurement": "inhibition at 1 µM", "value": 1.8, "unit": "%"}
    ]}
  ]
}
